Assay results reported in patent US9896441B2 (Lycera Corporation, priority 2014, dated 2018).

Tests used:
Gal4-RORγ-LBD = biological target: T1, Gal4-RORγ-LBD (Homo sapiens, UniProt P51449); test: Gal4-RORγ Luciferase Reporter Assay in HEK-293T Cells; assay type: cell-based; conditions: HEK-293 cells, luciferase reporter, in presence of ursolic acid; for Gal4-RORγ Assay Max Response: maximum response
T1 construct: expressed in transfected cells
T1 sequence (P51449 269-508 limits assumed): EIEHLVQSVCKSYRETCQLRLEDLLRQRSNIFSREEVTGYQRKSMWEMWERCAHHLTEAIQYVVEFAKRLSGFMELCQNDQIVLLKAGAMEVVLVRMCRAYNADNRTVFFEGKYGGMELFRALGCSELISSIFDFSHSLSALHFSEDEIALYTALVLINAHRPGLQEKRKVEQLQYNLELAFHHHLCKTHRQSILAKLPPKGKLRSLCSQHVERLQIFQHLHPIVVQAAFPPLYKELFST
Procedure, shortened: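 Max Response was taken as the upper plateau of a 4-parameter logistic fit of luciferase signal, normalized to 100 for wells without ursolic acid or compound. Transiently Gal4-RORγ-LBD/Gal4-luc transfected HEK-293 cells carrying […] ursolic acid were incubated with test compounds (0.2% DMSO) overnight at 37 °C and read with One-Glo.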

RORγ-LBD = biological target: T2, RORγ-LBD (Homo sapiens, UniProt P51449); test: RORγ-Ligand Binding Domain (LBD) TR-FRET Assay; assay type: biochemical; conditions: RORγ-LBD TR-FRET assay; for TR-FRET Assay Max Response: maximum response;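 for TR-FRET Assay Max Response: 665/615 nm signal ratio set to 100 without ursolic acid or test compound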
T2 construct: made in house; host or cells: SF9 cells (baculovirus); used as diluted lysate
T2 sequence (P51449 269-508 limits assumed): T1 sequence (P51449 269-508 limits assumed)
Procedure, shortened: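 Compounds, diluted in DMSO and then in assay buffer (1% DMSO final), were combined with His-tagged RORγ-LBD lysate at roughly 3 nM final and a 200 nM biotinylated SRC1 LXXLL peptide. Ursolic acid was included at 2 μM final. Coactivator recruitment was detected by TR-FRET.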

SMILES: O=S(=O)(c1cccc(C(F)(F)F)c1)N1C[C@H](O)Cc2ccc(OCc3c(F)cccc3Cl)cc21 [Example 155, (R)-7-((2-Chloro-6-fluorobenzyl)oxy)-1-((3-(trifluoromethyl)phenyl)sulfonyl)-1,2,3,4-tetrahydroquinolin-3-ol]
- EC50 (Gal4-RORγ-LBD): < 500 nM
- Gal4-RORγ Assay Max Response (Gal4-RORγ-LBD): ** (a value in the range of greater than 90 to 150)
- EC50 (RORγ-LBD): < 500 nM
- TR-FRET Assay Max Response (RORγ-LBD): ** (a value in the range of greater than 90 to 150)

SMILES: O=C(O)CO[C@@H]1Cc2ccc(OCc3c(F)cccc3Cl)cc2N(S(=O)(=O)c2cccc(C(F)(F)F)c2)C1 [Example 157, (R)-2-((7-((2-Chloro-6-fluorobenzyl)oxy)-1-((3-(trifluoromethyl)phenyl)sulfonyl)-1,2,3,4-tetrahydroquinolin-3-yl)oxy)acetic acid]
- EC50 (Gal4-RORγ-LBD): 500 to 5000 nM
- Gal4-RORγ Assay Max Response (Gal4-RORγ-LBD): ** (a value in the range of greater than 90 to 150)
- EC50 (RORγ-LBD): < 500 nM
- TR-FRET Assay Max Response (RORγ-LBD): ** (a value in the range of greater than 90 to 150)

SMILES: O=S(=O)(c1cccc(C(F)(F)F)c1)N1C[C@@H](O)Cc2ccc(OCc3c(F)cccc3Cl)cc21 [Example 158, (S)-7-((2-Chloro-6-fluorobenzyl)oxy)-1-((3-(trifluoromethyl)phenyl)sulfonyl)-1,2,3,4-tetrahydroquinolin-3-ol]
- EC50 (Gal4-RORγ-LBD): < 500 nM
- EC50 (RORγ-LBD): < 500 nM

SMILES: N[C@@H]1Cc2ccc(OCc3c(F)cccc3Cl)cc2N(S(=O)(=O)c2cccc(C(F)(F)F)c2)C1 [Example 159, (R)-7-((2-Chloro-6-fluorobenzyl)oxy)-1-((3-(trifluoromethyl)phenyl)sulfonyl)-1,2,3,4-tetrahydroquinolin-3-amine]
- EC50 (Gal4-RORγ-LBD): 500 to 5000 nM
- EC50 (RORγ-LBD): < 500 nM

SMILES: CC(=O)N[C@@H]1Cc2ccc(OCc3c(F)cccc3Cl)cc2N(S(=O)(=O)c2cccc(C(F)(F)F)c2)C1 [Example 160, (R)—N-(7-((2-chloro-6-fluorobenzyl)oxy)-1-((3-(trifluoromethyl)phenyl)sulfonyl)-1,2,3,4-tetrahydroquinolin-3-yl)acetamide]
- EC50 (Gal4-RORγ-LBD): < 500 nM
- EC50 (RORγ-LBD): < 500 nM

SMILES: C/C(=C\c1ccc2c(c1)N(S(=O)(=O)c1cccc(C(F)(F)F)c1)C[C@@H](O)C2)c1c(F)cccc1Cl [Example 161, (S,E)-7-(2-(2-Chloro-6-fluorophenyl)prop-1-en-1-yl)-1-((3-(trifluoromethyl)phenyl)sulfonyl)-1,2,3,4-tetrahydroquinolin-3-ol]
- EC50 (Gal4-RORγ-LBD): < 500 nM
- Gal4-RORγ Assay Max Response (Gal4-RORγ-LBD): ** (a value in the range of greater than 90 to 150)
- EC50 (RORγ-LBD): < 500 nM
- TR-FRET Assay Max Response (RORγ-LBD): ** (a value in the range of greater than 90 to 150)

SMILES: C/C(=C\c1ccc2c(c1)N(S(=O)(=O)c1cccc(C(F)(F)F)c1)C[C@H](O)C2)c1c(F)cccc1Cl [Example 162, (R,E)-7-(2-(2-Chloro-6-fluorophenyl)prop-1-en-1-yl)-1-((3-(trifluoromethyl)phenyl)sulfonyl)-1,2,3,4-tetrahydroquinolin-3-ol]
- EC50 (Gal4-RORγ-LBD): < 500 nM
- Gal4-RORγ Assay Max Response (Gal4-RORγ-LBD): ** (a value in the range of greater than 90 to 150)
- EC50 (RORγ-LBD): < 500 nM
- TR-FRET Assay Max Response (RORγ-LBD): *** (a value in the range of greater than 150 to 200)

SMILES: O=S(=O)(c1cccc(C(F)(F)F)c1)N1C[C@H](O)Cc2ccc(/C=C/c3c(F)cccc3Cl)cc21 [Example 163, (R,E)-7-(2-Chloro-6-fluorostyryl)-1-((3-(trifluoromethyl)phenyl)sulfonyl)-1,2,3,4-tetrahydroquinolin-3-ol]
- EC50 (Gal4-RORγ-LBD): < 500 nM
- Gal4-RORγ Assay Max Response (Gal4-RORγ-LBD): ** (a value in the range of greater than 90 to 150)
- EC50 (RORγ-LBD): < 500 nM
- TR-FRET Assay Max Response (RORγ-LBD): ** (a value in the range of greater than 90 to 150)

SMILES: C/C(=C\c1ccc2c(c1)N(S(=O)(=O)c1cccc(C(F)(F)F)c1)C[C@H](N)C2)c1c(F)cccc1Cl [Example 164, (R,E)-7-(2-(2-Chloro-6-fluorophenyl)prop-1-en-1-yl)-1-((3-(trifluoromethyl)phenyl)sulfonyl)-1,2,3,4-tetrahydroquinolin-3-amine]
- EC50 (Gal4-RORγ-LBD): 500 to 5000 nM
- EC50 (RORγ-LBD): < 500 nM

SMILES: CC(=O)N[C@@H]1Cc2ccc(/C=C(\C)c3c(F)cccc3Cl)cc2N(S(=O)(=O)c2cccc(C(F)(F)F)c2)C1 [Example 165, (R,E)-N-(7-(2-(2-Chloro-6-fluorophenyl)prop-1-en-1-yl)-1-((3-(trifluoromethyl)phenyl)sulfonyl)-1,2,3,4-tetrahydroquinolin-3-yl)acetamide]
- EC50 (Gal4-RORγ-LBD): < 500 nM
- Gal4-RORγ Assay Max Response (Gal4-RORγ-LBD): * (a value in the range of 30 to 90)
- EC50 (RORγ-LBD): < 500 nM
- TR-FRET Assay Max Response (RORγ-LBD): *** (a value in the range of greater than 150 to 200)

SMILES: C/C(=C\c1ccc2c(c1)N(S(=O)(=O)c1cccc(C(F)(F)F)c1)C[C@@H](N)C2)c1c(F)cccc1Cl [Example 166, (S,E)-7-(2-(2-Chloro-6-fluorophenyl)prop-1-en-1-yl)-1-((3-(trifluoromethyl)phenyl)sulfonyl)-1,2,3,4-tetrahydroquinolin-3-amine]
- EC50 (Gal4-RORγ-LBD): 500 to 5000 nM
- Gal4-RORγ Assay Max Response (Gal4-RORγ-LBD): ** (a value in the range of greater than 90 to 150)
- EC50 (RORγ-LBD): < 500 nM
- TR-FRET Assay Max Response (RORγ-LBD): *** (a value in the range of greater than 150 to 200)

SMILES: CC(=O)N[C@H]1Cc2ccc(/C=C(\C)c3c(F)cccc3Cl)cc2N(S(=O)(=O)c2cccc(C(F)(F)F)c2)C1 [Example 167, (S,E)-N-(7-(2-(2-chloro-6-fluorophenyl)prop-1-en-1-yl)-1-((3-(trifluoromethyl)phenyl)sulfonyl)-1,2,3,4-tetrahydroquinolin-3-yl)acetamide]
- EC50 (Gal4-RORγ-LBD): 500 to 5000 nM
- Gal4-RORγ Assay Max Response (Gal4-RORγ-LBD): ** (a value in the range of greater than 90 to 150)
- EC50 (RORγ-LBD): < 500 nM
- TR-FRET Assay Max Response (RORγ-LBD): *** (a value in the range of greater than 150 to 200)

SMILES: CC(C)(O[C@@H]1Cc2ccc(OCc3c(F)cccc3Cl)cc2N(S(=O)(=O)c2cccc(C(F)(F)F)c2)C1)C(=O)O [Example 172, (R)-2-((7-((2-Chloro-6-fluorobenzyl)oxy)-1-((3-(trifluoromethyl)phenyl)sulfonyl)-1,2,3,4-tetrahydroquinolin-3-yl)oxy)-2-methylpropanoic acid]
- EC50 (Gal4-RORγ-LBD): 500 to 5000 nM
- Gal4-RORγ Assay Max Response (Gal4-RORγ-LBD): ** (a value in the range of greater than 90 to 150)
- EC50 (RORγ-LBD): < 500 nM
- TR-FRET Assay Max Response (RORγ-LBD): ** (a value in the range of greater than 90 to 150)

SMILES: COC(=O)CO[C@@H]1Cc2ccc(OCc3c(F)cccc3Cl)cc2N(S(=O)(=O)c2cccc(C(F)(F)F)c2)C1 [Example 173A]
- EC50 (Gal4-RORγ-LBD): < 500 nM
- EC50 (RORγ-LBD): < 500 nM

SMILES: CC(O[C@@H]1Cc2ccc(OCc3c(F)cccc3Cl)cc2N(S(=O)(=O)c2cccc(C(F)(F)F)c2)C1)C(=O)O (stereo partly drawn) [Example 173C, 2-(((R)-7-((2-chloro-6-fluorobenzyl)oxy)-1-((3-(trifluoromethyl)phenyl)sulfonyl)-1,2,3,4-tetrahydroquinolin-3-yl)oxy)propanoic acid]
- EC50 (Gal4-RORγ-LBD): < 500 nM
- Gal4-RORγ Assay Max Response (Gal4-RORγ-LBD): ** (a value in the range of greater than 90 to 150)
- EC50 (RORγ-LBD): < 500 nM
- TR-FRET Assay Max Response (RORγ-LBD): ** (a value in the range of greater than 90 to 150)

SMILES: COC(=O)CO[C@@H]1Cc2ccc(/C=C(\C)c3c(F)cccc3Cl)cc2N(S(=O)(=O)c2cccc(C(F)(F)F)c2)C1 [Example 173D, methyl (R,E)-2-((7-(2-(2-chloro-6-fluorophenyl)prop-1-en-1-yl)-1-((3-(trifluoromethyl)-phenyl)sulfonyl)-1,2,3,4-tetrahydroquinolin-3-yl)oxy)acetate]
- EC50 (Gal4-RORγ-LBD): < 500 nM
- Gal4-RORγ Assay Max Response (Gal4-RORγ-LBD): ** (a value in the range of greater than 90 to 150)
- EC50 (RORγ-LBD): < 500 nM
- TR-FRET Assay Max Response (RORγ-LBD): ** (a value in the range of greater than 90 to 150)

SMILES: C/C(=C\c1ccc2c(c1)N(S(=O)(=O)c1cccc(C(F)(F)F)c1)C[C@H](OCC(=O)O)C2)c1c(F)cccc1Cl [Example 173E, (R,E)-2-((7-(2-(2-chloro-6-fluorophenyl)prop-1-en-1-yl)-1-((3-(trifluoromethyl)-phenyl)sulfonyl)-1,2,3,4-tetrahydroquinolin-3-yl)oxy)acetic acid]
- EC50 (Gal4-RORγ-LBD): 500 to 5000 nM
- Gal4-RORγ Assay Max Response (Gal4-RORγ-LBD): ** (a value in the range of greater than 90 to 150)
- EC50 (RORγ-LBD): < 500 nM
- TR-FRET Assay Max Response (RORγ-LBD): ** (a value in the range of greater than 90 to 150)

SMILES: C/C(=C\c1ccc2c(c1)N(S(=O)(=O)c1cccc(C(F)(F)F)c1)C[C@H](OC(C)(C)C(=O)O)C2)c1c(F)cccc1Cl [Example 173F, (R,E)-2-((7-(2-(2-chloro-6-fluorophenyl)prop-1-en-1-yl)-1-((3-(trifluoromethyl)phenyl)-sulfonyl)-1,2,3,4-tetrahydroquinolin-3-yl)oxy)-2-methylpropanoic acid]
- EC50 (Gal4-RORγ-LBD): < 500 nM
- Gal4-RORγ Assay Max Response (Gal4-RORγ-LBD): ** (a value in the range of greater than 90 to 150)
- EC50 (RORγ-LBD): < 500 nM
- TR-FRET Assay Max Response (RORγ-LBD): *** (a value in the range of greater than 150 to 200)

SMILES: COC(=O)CCC1CC(S(=O)(=O)c2ccc(F)c(OC)c2)c2cc(OCc3c(F)cccc3Cl)ccc2O1 (stereo not drawn) [Example 178, Methyl 3-(6-((2-chloro-6-fluorobenzyl)oxy)-4-((4-fluoro-3-methoxyphenyl)sulfonyl)chroman-2-yl)propanoate]
- EC50 (Gal4-RORγ-LBD): 500 to 5000 nM
- Gal4-RORγ Assay Max Response (Gal4-RORγ-LBD): ** (a value in the range of greater than 90 to 150)
- EC50 (RORγ-LBD): < 500 nM
- TR-FRET Assay Max Response (RORγ-LBD): ** (a value in the range of greater than 90 to 150)
